Experimental data: PubChem BioAssay (NCI)
Values joined by “and” are separate entries in the source; they are usually repeats but may differ in a detail not shown here. Equal entries are not always repeated.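 Step 1: Grow cells in 96-well plates. Step 2: Expose to compound for 48 hours at 5 concentrations. Step 3: Interpolate endpoints linearly; if unreached, use highest concentration. At the GI50, growth is halved. The concentration for full growth arrest is given as TGI.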

Tests used:
Assay in all cases: NCI anticancer screen, dose series, 48 h
SK-MEL-28 melanoma = tested on: SK-MEL-28 melanoma
U251 CNS = tested on: U251 CNS
SK-MEL-2 melanoma = tested on: SK-MEL-2 melanoma
NCI-H460 lung = tested on: NCI-H460 lung
SR leukemia = tested on: SR leukemia
ACHN renal = tested on: ACHN renal
SN12C renal = tested on: SN12C renal
SK-MEL-5 melanoma = tested on: SK-MEL-5 melanoma
SK-OV-3 ovarian = tested on: SK-OV-3 ovarian
SW-620 colon = tested on: SW-620 colon
786-0 renal = tested on: 786-0 renal
MOLT-4 leukemia = tested on: MOLT-4 leukemia
HOP-92 NSCLC = tested on: HOP-92 NSCLC

Structure (SMILES)	TGI (SK-MEL-28 melanoma)	TGI (U251 CNS)	TGI (SK-MEL-2 melanoma)	TGI (NCI-H460 lung)	TGI (SR leukemia)	TGI (ACHN renal)	TGI (SN12C renal)	TGI (SK-MEL-5 melanoma)	TGI (SK-OV-3 ovarian)	TGI (SW-620 colon)	TGI (786-0 renal)	TGI (MOLT-4 leukemia)	TGI (HOP-92 NSCLC)	GI50 (SK-OV-3 ovarian)
COc1cc2nc(-c3cccs3)nc(Cl)c2cc1OC	> 100 µM	> 100 µM	> 100 µM	> 100 µM	34.8 µM	> 100 µM	> 100 µM	> 100 µM	> 100 µM	> 100 µM	> 100 µM	–	–	–
CCOP(=O)(OCC)/C(C#N)=C/c1ccc(-c2cc(C(F)(F)F)cc(C(F)(F)F)c2)o1	33 µM	24.4 µM	38.8 µM	19.1 µM	26.8 µM	50.2 µM	29.1 µM	–	–	28.2 µM	25.5 µM	21.8 µM	20.7 µM	–
COc1cc(Nc2nc3cc(C(F)(F)F)ccc3nc2C(=O)O)cc(OC)c1OC	> 100 µM	> 100 µM	38.9 µM	> 100 µM	–	> 100 µM	> 100 µM	> 100 µM	–	> 100 µM	> 100 µM	> 100 µM	85 µM	–
N[C@H](Cc1ccc2oc3cc(=O)c4ccccc4c-3nc2c1)C(=O)O	> 100 µM	> 100 µM	–	> 100 µM	> 100 µM	> 100 µM	> 100 µM	41.1 µM	> 100 µM	> 100 µM	> 100 µM	> 100 µM	> 100 µM	–
CC(=O)Nc1c(C(=N)C#N)ncn1CCO	> 100 µM	> 100 µM	> 100 µM	> 100 µM	–	> 100 µM	> 100 µM	> 100 µM	> 100 µM	> 100 µM	> 100 µM	–	> 100 µM	–
Cc1ccc2c(c1)CC1(Cc3cccc(C)c3C1=O)C2=O (stereo not given)	> 100 µM	> 100 µM	–	> 100 µM	> 100 µM	> 100 µM	> 100 µM	> 100 µM	> 100 µM	> 100 µM	> 100 µM	> 100 µM	> 100 µM	–
CC(=O)O[C@]12CCCCCC1C1(O)C(O)CCCCC12 (stereo not given in full)	> 100 µM	> 100 µM	> 100 µM	> 100 µM	> 100 µM	> 100 µM	> 100 µM	> 100 µM	> 100 µM	> 100 µM	> 100 µM	> 100 µM	–	–
O=C1C(Br)=CC2(C=C1Br)CCNC1=C2C(=O)c2ncccc2C1=O	2.17 µM	5.6 µM	0.38 µM	1.46 µM	2.07 µM	1.94 µM	2.5 µM	1.62 µM	5.8 µM	2.73 µM	3.11 µM	–	4.38 µM	–
COc1cccc(-c2nc(-c3cnccn3)n(C/C=C/c3ccccc3)n2)c1	–	> 10 µM	> 10 µM	> 10 µM	> 10 µM	> 10 µM	> 10 µM	–	–	> 10 µM	> 10 µM	> 10 µM	> 10 µM	–
CC(NC(=O)Cc1ccccc1)NC(=O)C(C)C(=O)NCc1ccccc1 (stereo not given)	–	> 100 µM	> 100 µM	> 100 µM	> 100 µM	> 100 µM	> 100 µM	> 100 µM	> 100 µM	> 100 µM	> 100 µM	> 100 µM	88.8 µM	–
Cc1cc(C)nc(NC(P(=O)(O)O)P(=O)(O)O)n1	–	–	–	> 100 µM	–	> 100 µM	–	> 100 µM	> 100 µM	–	> 100 µM	–	–	–
O=C(CBr)c1ccc2cc(Br)c3ccccc3c2c1	57.5 µM	> 100 µM	45.1 µM	54.4 µM	46.3 µM	> 100 µM	–	30.2 µM	–	74.4 µM	> 100 µM	37 µM	45.7 µM	–
CCC1CC(O)c2c(O)c3c(c(O)c2C1O)C(=O)c1cccc(O)c1C3=O (stereo not given) (tested in a mixture with another compound)	0.0712 µM and 0.0612 µM	0.23 µM and 0.331 µM	0.0457 µM	0.271 µM	0.0605 µM and 0.0406 µM	–	1.05 µM	0.0374 µM and 0.0138 µM	5.7 µM	0.0707 µM and 0.128 µM	0.758 µM and 1.22 µM	0.0755 µM and 0.0479 µM	–	0.0111 µM
COc1ccc2nc(-c3ccccc3)c(=O)[nH]c2c1	> 100 µM	–	–	> 100 µM	> 100 µM	> 100 µM	> 100 µM	> 100 µM	–	> 100 µM	> 100 µM	> 100 µM	> 100 µM	–
CCOC(=O)c1c(OCC)[nH]c(=O)c(C(c2cccs2)c2c(O)c(C(=O)OCC)c(OCC)[nH]c2=O)c1O	43.6 µM	30.3 µM	29.9 µM	39.8 µM	–	25.4 µM	34.6 µM	25.5 µM	–	34.1 µM	59.3 µM	22.5 µM	48.2 µM	–
CC(=O)NC1C(Sc2ncn(C3OC(CO)C(O)C(O)C3NC(C)=O)n2)OC(CO)C(O)C1O (stereo not given)	> 100 µM	> 100 µM	> 100 µM	> 100 µM	–	> 100 µM	> 100 µM	> 100 µM	> 100 µM	> 100 µM	> 100 µM	> 100 µM	> 100 µM	–
COc1ccc(C2(CC(C)C)CCN(S(=O)(=O)c3ccc(C)cc3)C2)cc1OC (stereo not given)	> 100 µM	> 100 µM	47.2 µM	> 100 µM	> 100 µM	> 100 µM	> 100 µM	32.6 µM	> 100 µM	> 100 µM	> 100 µM	17.4 µM	–	–
CCCCC1Cc2cc(O)ccc2-c2nc3cc(O)ccc3n21 (stereo not given) (tested in a mixture with another compound)	–	27.5 µM	–	32.9 µM	34 µM	33.7 µM	36 µM	26.3 µM	40.4 µM	39.5 µM	52.9 µM	46.9 µM	30.5 µM	–
O=P1(Cc2ccccc2)N(Cc2ccccc2)[C@@H]2CCCC[C@H]2N1Cc1ccccc1	33.2 µM	25.5 µM	25.4 µM	25.8 µM	8.06 µM	25.5 µM	23.2 µM	3.57 µM	28 µM	30.1 µM	27.2 µM	8.44 µM	–	–
